Legend:
[1] = target: T1, AT1 receptor (Homo sapiens, UniProt P30556); experiment: NanoBRET competition binding of TAMRA-AngII, cells expressing Nluc-AT1; details: various concentrations of TAMRA-AngII, increasing concentrations of competitor
T1 construct: host or cells: HEK293FT, transient transfection
T1 sequence (P30556 1-359): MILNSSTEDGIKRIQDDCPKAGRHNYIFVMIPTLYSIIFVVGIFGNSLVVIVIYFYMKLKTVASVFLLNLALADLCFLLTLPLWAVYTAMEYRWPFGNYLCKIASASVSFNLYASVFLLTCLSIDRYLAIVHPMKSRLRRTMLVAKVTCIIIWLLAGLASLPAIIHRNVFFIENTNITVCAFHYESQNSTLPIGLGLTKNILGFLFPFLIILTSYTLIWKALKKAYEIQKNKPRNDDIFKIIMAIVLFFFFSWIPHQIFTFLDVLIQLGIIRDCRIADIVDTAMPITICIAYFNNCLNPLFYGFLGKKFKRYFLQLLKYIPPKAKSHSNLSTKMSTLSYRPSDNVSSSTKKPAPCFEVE
Description: Figure 8 Competition binding of TAMRA-AngII to the AT1 receptor and the AT1-AT2 heteromer.
The relative BRET ratio was calculated by normalizing the data, as described in the figure legends. All individual experiments were conducted with duplicate wells.

[2] = target: T2, β2AR (Homo sapiens, UniProt P07550); experiment: NanoBRET saturation ligand binding, cells expressing Nluc-β2AR
T2 construct: host or cells: HEK293FT, transient transfection
Description: (§1) All individual experiments were conducted with duplicate wells.
(§2) All data were presented and analyzed using GraphPad Prism 8.0. Saturation binding data were fitted with one-site nonlinear regression for specific binding. Competition binding data were fitted using logarithmic nonlinear regression (three parameter). Statistical analysis was performed as described in the relevant figure/table legends or in the text, with p < 0.05 considered significant.

[3] = target: T3, AT1-β2AR heteromer (Homo sapiens, UniProt P07550); experiment: NanoBRET saturation ligand binding, Receptor-HIT configuration, cells expressing Nluc-AT1 + β2AR; details: mean ± SEM, n = 8, BODIPY-propranolol saturation, non-specific binding with 10 μM propranolol, read-out: Kd (affinity of binding to AT1-β2AR heteromers)
T3 construct: expressed in transfected cells; host or cells: HEK293FT, transient cotransfection
Description: as §1, §2

T2 sequence (P07550 whole entry): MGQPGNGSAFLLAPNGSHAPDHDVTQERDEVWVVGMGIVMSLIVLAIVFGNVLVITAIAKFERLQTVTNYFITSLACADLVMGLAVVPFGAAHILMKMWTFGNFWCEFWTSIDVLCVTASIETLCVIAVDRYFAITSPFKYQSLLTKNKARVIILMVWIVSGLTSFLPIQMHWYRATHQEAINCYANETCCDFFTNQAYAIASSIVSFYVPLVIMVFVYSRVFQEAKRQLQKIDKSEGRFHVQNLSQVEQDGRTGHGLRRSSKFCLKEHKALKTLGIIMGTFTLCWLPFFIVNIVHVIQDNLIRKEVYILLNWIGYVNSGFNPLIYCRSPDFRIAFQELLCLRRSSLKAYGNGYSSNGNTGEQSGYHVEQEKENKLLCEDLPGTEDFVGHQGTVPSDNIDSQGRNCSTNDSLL
T3 sequence (P07550 whole entry, one chain of several): as the sequence (P07550 whole entry) above

displacement of TAMRA-AngII bound to Nluc-AT1 [1] | Compound | specific binding to Nluc-β2AR ([2]; cells expressing Nluc-β2AR only, presence or absence of 10 μM propranolol) | Kd ([2]; mean ± SEM, n = 4, cells expressing Nluc-β2AR, BODIPY-propranolol saturation, non-specific binding with 10 μM propranolol, read-out: Kd (affinity of binding to β2ARs)) [nM] | Kd [3] [nM]
unable to see any displacement | Cc1cc(Cn2cnc3c2C[C@@H](C(=O)O)N(C(=O)C(c2ccccc2)c2ccccc2)C3)ccc1N(C)C [PD 123319] | – | – | –
– | CC[C@H](C)[C@H](NC(=O)[C@H](Cc1ccc(O)cc1)NC(=O)[C@@H](NC(=O)[C@H](CCCNC(=N)N)NC(=O)[C@H](CC(=O)O)NC(=O)CCCCCNC(=O)COc1ccc(/C=C/c2ccc3n2[B-](F)(F)[N+]2=C(c4cccs4)C=CC2=C3)cc1)C(C)C)C(=O)N[C@@H](Cc1c[nH]cn1)C(=O)N1CCC[C@H]1C(=O)N[C@@H](Cc1ccccc1)C(=O)O [BODIPY-AngII] | no specific binding | 3.9 ± 0.5 | 8.8 ± 4

Reference: PMC7866079, “Investigation of Receptor Heteromers Using NanoBRET Ligand Binding” (International Journal of Molecular Sciences, 2021)
